{"source": "patent US9770438B2", "about": "“Clonidine formulation in a polyorthoester carrier” (Medtronic, Inc., priority 2008, dated 2017)", "key": {"[1]": {"test_system": "Rat Chronic Constriction Injury Model (Bennett Model) of neuropathic pain", "settings": "subcutaneously 0.02 mg/kg/day; compared to unloaded polyorthoester depot (POE Control); days 7-63; FIG. 3", "excerpt": "(§1) A 2-month chronic constriction injury (CCI) model of neuropathic pain was used to evaluate a formulation of clonidine encapsulated in a POE polymer, a POE control polymer and clonidine given subcutaneously (SC).\n(§2) The inventors evaluated the efficacy of a five month Clonidine/Polyorthoester Drug Depot in the Rat Chronic Constriction Injury Model. The animal model was the Bennett Model (Wistar rat). The purpose: to determine whether a five month polyorthoester clonidine-eluting depot can improve pain associated behavioral responses in a rat model of neuropathic pain.\n(§3) Experimental Design: Four loose chromic gut ligatures, 1 mm apart, were tied around the common sciatic nerve at mid-thigh. Each animal received treatment of test or a controlled article according to the dosing described in Table 2.\n(§4) The inventors have conducted the present study for a period of 64 days and have employed the following two tests: (1) the Hargreaves test; and (2) the von Frey test. The Hargreaves Tests of Thermal Hyperalgesia were conducted on days 7, 14, 21, 28, 35, 42, 49, 56 and 63. The von Frey monofilament test of mechanical allodynia (performed the day following thermal testing) were conducted on days 8, 15, 22, 29, 36, 43, 50, 57 and 64."}, "[2]": {"test_system": "Rat Chronic Constriction Injury Model (Bennett Model) of neuropathic pain", "settings": "subcutaneously 0.02 mg/kg/day; compared to unloaded polyorthoester depot (POE Control); days 8-64; FIG. 4", "excerpt": "as §1, §2, §3, §4"}}}
{"smiles": "Clc1cccc(Cl)c1N=C1NCCN1", "note": "[clonidine, 2,6-dichloro-N-2-imidazolidinyldenebenzenamine]", "values": [{"measurement": "pain behavioral response (percentage of baseline) for thermal hyperalgesia", "setting": "[1]", "value": "consistently reduced the behavioral response"}, {"measurement": "pain behavioral response (percentage of baseline) for mechanical allodynia", "setting": "[2]", "value": "reduced the behavioral response"}]}
